Reference: US11046696B2, “Fused pyrimidine compound or salt thereof” (TAIHO PHARMACEUTICAL CO., LTD., priority 2016, dated 2021)

Experiment: Evaluation of stability in liver microsome
Conditions: mouse liver microsome, 1 μM, 37° C. for 30 minutes

| Compound | Remaining (%) |
| --- | --- |
| COCc1ccc(NC(=O)c2c(OC[C@@H]3CCCO3)n(C3(C)CC3)c3ncnc(N)c23)cc1 [Example 97, (S)-4-amino-N-(4-(methoxymethyl)phenyl)-7-(1-methylcyclopropyl)-6-((tetrahydrofuran-2-yl)methoxy)-7H-pyrrolo[2,3-d]pyrimidine-5-carboxamide] | 70 |
| COCc1ccc(NC(=O)c2c(-c3cnn(C)c3)n(C3(C)CC3)c3ncnc(N)c23)cc1 [Example 150, 4-amino-N-(4-(methoxymethyl)phenyl)-6-(1-methyl-1H-pyrazol-4-yl)-7-(1-methylcyclopropyl)-7H-pyrrolo[2,3-d]pyrimidine-5-carboxamide] | 78 |
| COCc1ccc(NC(=O)c2c(-c3cn[nH]c3)n(C3(C)CC3)c3ncnc(N)c23)cc1 [Example 167, 4-amino-N-(4-(methoxymethyl)phenyl)-7-(1-methylcyclopropyl)-6-(1H-pyrazol-4-yl)-7H-pyrrolo[2,3-d]pyrimidine-5-carboxamide] | 80 |
| COCc1ccc(NC(=O)c2c(C#Cc3ccccc3OC)n(C3(C)CC3)c3ncnc(N)c23)cc1 [Example 113, 4-amino-N-(4-(methoxymethyl)phenyl)-6-((2-methoxyphenyl)ethynyl)-7-(1-methylcyclopropyl)-7H-pyrrolo[2,3-d]pyrimidine-5-carboxamide] | 79 |
| COCc1ccc(NC(=O)c2c(C#CC3(O)CCCC3)n(C3(C)CC3)c3ncnc(N)c23)cc1 [Example 131, 4-amino-6-((1-hydroxycyclopentyl)ethynyl)-N-(4-(methoxymethyl)phenyl)-7-(1-methylcyclopropyl)-7H-pyrrolo[2,3-d]pyrimidine-5-carboxamide] | 55 |
| COCc1ccc(NC(=O)c2c(OCC(C)C)n(C3(C)CC3)c3ncnc(N)c23)cc1 [Example 99, 4-amino-6-isobutoxy-N-(4-(methoxymethyl)phenyl)-7-(1-methylcyclopropyl)-7H-pyrrolo[2,3-d]pyrimidine-5-carboxamide] | 51 |
| COCc1ccc(NC(=O)c2c(C#CC3CCN(C)CC3)n(C3(C)CC3)c3ncnc(N)c23)cc1 [Example 183, 4-amino-N-(4-(methoxymethyl)phenyl)-7-(1-methylcyclopropyl)-6-((1-methylpiperidin-4-yl)ethynyl)-7H-pyrrolo[2,3-d]pyrimidine-5-carboxamide] | 77 |
| COCc1ccc(NC(=O)c2c(C#CCN(C)C)n(C3(C)CC3)c3ncnc(N)c23)cc1 [Example 198, 4-amino-6-(3-(dimethylamino)prop-1-yn-1-yl)-N-(4-(methoxymethyl)phenyl)-7-(1-methylcyclopropyl)-7H-pyrrolo[2,3-d]pyrimidine-5-carboxamide] | 57 |
| COCc1ccc(NC(=O)c2c(C#Cc3ccc[nH]3)n(C3(C)CC3)c3ncnc(N)c23)cc1 [Example 161, 6-((1H-pyrrol-2-yl)ethynyl)-4-amino-N-(4-(methoxymethyl)phenyl)-7-(1-methylcyclopropyl)-7H-pyrrolo[2,3-d]pyrimidine-5-carboxamide] | 68 |
| COCc1ccc(NC(=O)c2c(C#Cc3ccc(OC)cc3)n(C3(C)CC3)c3ncnc(N)c23)cc1 [Example 165, 4-amino-N-(4-(methoxymethyl)phenyl)-6-((4-methoxypheny)ethynyl)-7-(1-methylcyclopropyl)-7H-pyrrolo[2,3-d]pyrimidine-5-carboxamide] | 90 |
| COCc1ccc(NC(=O)c2c(C#CCC(C)O)n(C3(C)CC3)c3ncnc(N)c23)cc1 (stereo not shown) [Example 188, 4-amino-6-(4-hydroxypent-1-yn-1-yl)-N-(4-(methoxymethyl)phenyl)-7-(1-methylcyclopropyl)-7H-pyrrolo[2,3-d]pyrimidine-5-carboxamide] | 68 |
| COCc1ccc(NC(=O)c2cn(C3(CF)CC3)c3ncnc(N)c23)cc1 [Example 45, 4-amino-7-(1-(fluoromethyl)cyclopropyl)-N-(4-(methoxymethyl)phenyl)-7H-pyrrolo[2,3-d]pyrimidine-5-carboxamide] | 66 |
| COCc1ccc(NC(=O)c2c(C#Cc3ccc(N)nc3)n(C3(C)CC3)c3ncnc(N)c23)cc1 [Example 155, 4-amino-6-((6-aminopyridin-3-yl)ethynyl)-N-(4-(methoxymethyl)phenyl)-7-(1-methylcyclopropyl)-7H-pyrrolo[2,3-d]pyrimidine-5-carboxamide] | 64 |
| COCc1ccc(NC(=O)c2c(OC[C@H]3CCCO3)n(C3(C)CC3)c3ncnc(N)c23)cc1 [Example 89, (R)-4-amino-N-[4-(methoxymethyl)phenyl]-7-(1-methylcyclopropyl)-6-((tetrahydrofuran-2-yl)methoxy)-7H-pyrrolo[2,3-d]pyrimidine-5-carboxamide] | 69 |
| CC(C)(C)n1cc(C(=O)Nc2ccc(-c3cc[nH]n3)cc2)c2c(N)ncnc21 [Example 80, N-(4-(1H-pyrazol-3-yl)phenyl)-4-amino-7-(tert-butyl)-7H-pyrrolo[2,3-d]pyrimidine-5-carboxamide] | 50 |
| COCc1ccc(NC(=O)c2cn(C3(C(F)F)CC3)c3ncnc(N)c23)cc1 [Example 46, 4-amino-7-(1-(difluoromethyl)cyclopropyl)-N-(4-(methoxymethyl)phenyl)-7H-pyrrolo[2,3-d]pyrimidine-5-carboxamide] | 65 |
| CCC(O)CC#Cc1c(C(=O)Nc2ccc(COC)cc2)c2c(N)ncnc2n1C1(C)CC1 (stereo not shown) [Example 157, 4-amino-6-(4-hydroxyhex-1-yn-1-yl)-N-(4-(methoxymethyl)phenyl)-7-(1-methylcyclopropyl)-7H-pyrrolo[2,3-d]pyrimidine-5-carboxamide] | 59 |
| COCc1ccc(NC(=O)c2cn(C(C)(C)C)c3ncnc(N)c23)cc1F [Example 30, 4-amino-7-(tert-butyl)-N-(3-fluoro-4-(methoxymethyl)phenyl)-7H-pyrrolo[2,3-d]pyrimidine-5-carboxamide] | 54 |
| COCc1ccc(NC(=O)c2c(OCCN3CCCC3=O)n(C3(C)CC3)c3ncnc(N)c23)cc1 [Example 136, 4-amino-N-(4-(methoxymethyl)phenyl)-7-(1-methylcyclopropyl)-6-(2-(2-oxopyrrolidin-1-yl)ethoxy)-7H-pyrrolo[2,3-d]pyrimidine-5-carboxamide] | 78 |
| COCc1ccc(NC(=O)c2c(C#Cc3cnn(C(C)C)c3)n(C3(C)CC3)c3ncnc(N)c23)cc1 [Example 144, 4-amino-6-((1-isopropyl-1H-pyrazol-4-yl)ethynyl)-N-(4-(methoxymethyl)phenyl)-7-(1-methylcyclopropyl)-7H-pyrrolo[2,3-d]pyrimidine-5-carboxamide] | 79 |
| C=C(C)c1c(C(=O)Nc2ccc(COC)cc2)c2c(N)ncnc2n1C1(C)CC1 [Example 149, 4-amino-N-(4-(methoxymethyl)phenyl)-7-(1-methylcyclopropyl)-6-(prop-1-en-2-yl)-7H-pyrrolo[2,3-d]pyrimidine-5-carboxamide] | 62 |
| COCc1ccc(NC(=O)c2c(C#Cc3cccc(NCc4ccncc4)c3)n(C3(C)CC3)c3ncnc(N)c23)cc1 [Example 122, 4-amino-N-(4-(methoxymethyl)phenyl)-7-(1-methylcyclopropyl)-6-((3-((pyridin-4-ylmethyl)amino)phenyl)ethynyl)-7H-pyrrolo[2,3-d]pyrimidine-5-carboxamide] | 62 |
